Source: the supplement of paper PMC10307832

Key:
Experiment in all cases: relative viability (nuclei count vs DMSO), 5 days (fraction); higher = more cells survive
201T = tested on: 201T
Outline: (§1)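 Relative viability equals treated-well nuclei counts divided by vehicle-well nuclei counts. Counts came from 4× images of lung cancer cell lines grown in 1536-well plates for 5 days after pin-tool dosing on the day after seeding. Dosing used one drug alone or a fixed anchor-drug dose plus five library-drug doses (not always all listed) in √10 steps, and values are medians of duplicate plates.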

ABC-1 = tested on: ABC-1
Outline: as §1

ChaGo-K-1 = tested on: ChaGo-K-1
Outline: as §1

EKVX = tested on: EKVX
Outline: as §1

EMC-BAC-2 = tested on: EMC-BAC-2
Outline: as §1

HCC-44 = tested on: HCC-44
Outline: as §1

HCC-78 = tested on: HCC-78
Outline: as §1

HOP-62 = tested on: HOP-62
Outline: as §1

LC-2-ad = tested on: LC-2-ad
Outline: as §1

LK-2 = tested on: LK-2
Outline: as §1

NCI-H1355 = tested on: NCI-H1355
Outline: as §1

NCI-H2009 = tested on: NCI-H2009
Outline: as §1

NCI-H2228 = tested on: NCI-H2228
Outline: as §1

NCI-H2347 = tested on: NCI-H2347
Outline: as §1

NCI-H3122 = tested on: NCI-H3122
Outline: as §1

NCI-H838 = tested on: NCI-H838
Outline: as §1

PC-14 = tested on: PC-14
Outline: as §1

RERF-LC-KJ = tested on: RERF-LC-KJ
Outline: as §1

SK-MES-1 = tested on: SK-MES-1
Outline: as §1

SW 1573 = tested on: SW 1573
Outline: as §1

SW 900 = tested on: SW 900
Outline: as §1

UMC-11 = tested on: UMC-11
Outline: as §1

COCC1(CO)C(=O)C2CCN1CC2 (stereo not given) [PRIMA-1MET] + N=C(N)NC(=N)NCCc1ccccc1 [Phenformin] (partner 250 µM)
relative viability (201T; first compound 0.2 µM): 0.444
relative viability (201T; first compound 0.6325 µM): 0.452
relative viability (201T; first compound 2 µM): 0.397
relative viability (201T; first compound 6.325 µM): 0.452
relative viability (201T; first compound 20 µM): 0.464
relative viability (ABC-1; first compound 0.2 µM): 0.233
relative viability (ABC-1; first compound 0.6325 µM): 0.2
relative viability (ABC-1; first compound 2 µM): 0.23
relative viability (ABC-1; first compound 6.325 µM): 0.231
relative viability (ABC-1; first compound 20 µM): 0.199
relative viability (ChaGo-K-1; first compound 0.2 µM): 0.481
relative viability (ChaGo-K-1; first compound 0.6325 µM): 0.439
relative viability (ChaGo-K-1; first compound 2 µM): 0.514
relative viability (ChaGo-K-1; first compound 6.325 µM): 0.503
relative viability (ChaGo-K-1; first compound 20 µM): 0.459
relative viability (EKVX; first compound 0.2 µM): 0.219
relative viability (EKVX; first compound 0.6325 µM): 0.221
relative viability (EKVX; first compound 6.325 µM): 0.217
relative viability (EKVX; first compound 20 µM): 0.222
relative viability (EMC-BAC-2; first compound 0.2 µM): 0.642
relative viability (EMC-BAC-2; first compound 0.6325 µM): 0.564
relative viability (EMC-BAC-2; first compound 6.325 µM): 0.609
relative viability (EMC-BAC-2; first compound 20 µM): 0.352
relative viability (HCC-44; first compound 0.2 µM): 0.265
relative viability (HCC-44; first compound 0.6325 µM): 0.137
relative viability (HCC-44; first compound 2 µM): 0.244
relative viability (HCC-44; first compound 6.325 µM): 0.2
relative viability (HCC-44; first compound 20 µM): 0.236
relative viability (HCC-78; first compound 0.2 µM): 0.7
relative viability (HCC-78; first compound 0.6325 µM): 0.648
relative viability (HCC-78; first compound 6.325 µM): 0.658
relative viability (HCC-78; first compound 20 µM): 0.599
relative viability (HOP-62; first compound 0.2 µM): 0.668
relative viability (HOP-62; first compound 0.6325 µM): 0.686
relative viability (HOP-62; first compound 2 µM): 0.648
relative viability (HOP-62; first compound 6.325 µM): 0.694
relative viability (HOP-62; first compound 20 µM): 0.311
relative viability (LC-2-ad; first compound 0.2 µM): 0.548
relative viability (LC-2-ad; first compound 2 µM): 0.49
relative viability (LC-2-ad; first compound 6.325 µM): 0.568
relative viability (LC-2-ad; first compound 20 µM): 0.36
relative viability (LK-2; first compound 0.2 µM): 0.45
relative viability (LK-2; first compound 0.6325 µM): 0.41
relative viability (LK-2; first compound 2 µM): 0.228
relative viability (LK-2; first compound 6.325 µM): 0.14
relative viability (LK-2; first compound 20 µM): 0.124
relative viability (NCI-H1355; first compound 0.2 µM): 0.443
relative viability (NCI-H1355; first compound 0.6325 µM): 0.409
relative viability (NCI-H1355; first compound 2 µM): 0.384
relative viability (NCI-H1355; first compound 6.325 µM): 0.46
relative viability (NCI-H1355; first compound 20 µM): 0.421
relative viability (NCI-H2009; first compound 0.2 µM): 0.497
relative viability (NCI-H2009; first compound 0.6325 µM): 0.456
relative viability (NCI-H2009; first compound 2 µM): 0.519
relative viability (NCI-H2009; first compound 6.325 µM): 0.53
relative viability (NCI-H2009; first compound 20 µM): 0.217
relative viability (NCI-H2228; first compound 0.2 µM): 0.41
relative viability (NCI-H2228; first compound 0.6325 µM): 0.278
relative viability (NCI-H2228; first compound 2 µM): 0.336
relative viability (NCI-H2228; first compound 6.325 µM): 0.213
relative viability (NCI-H2228; first compound 20 µM): 0.0266
relative viability (NCI-H2347; first compound 0.2 µM): 0.265
relative viability (NCI-H2347; first compound 0.6325 µM): 0.366
relative viability (NCI-H2347; first compound 2 µM): 0.231
relative viability (NCI-H2347; first compound 6.325 µM): 0.28
relative viability (NCI-H2347; first compound 20 µM): 0.387
relative viability (NCI-H3122; first compound 0.2 µM): 0.367
relative viability (NCI-H3122; first compound 0.6325 µM): 0.35
relative viability (NCI-H3122; first compound 6.325 µM): 0.392
relative viability (NCI-H3122; first compound 20 µM): 0.343
relative viability (NCI-H838; first compound 0.2 µM): 0.574
relative viability (NCI-H838; first compound 0.6325 µM): 0.535
relative viability (NCI-H838; first compound 2 µM): 0.451
relative viability (NCI-H838; first compound 6.325 µM): 0.712
relative viability (NCI-H838; first compound 20 µM): 0.0931
relative viability (PC-14; first compound 0.2 µM): 0.621
relative viability (PC-14; first compound 0.6325 µM): 0.503
relative viability (PC-14; first compound 2 µM): 0.735
relative viability (PC-14; first compound 6.325 µM): 0.379
relative viability (PC-14; first compound 20 µM): 0.0559
relative viability (RERF-LC-KJ; first compound 0.2 µM): 0.493
relative viability (RERF-LC-KJ; first compound 0.6325 µM): 0.432
relative viability (RERF-LC-KJ; first compound 2 µM): 0.449
relative viability (RERF-LC-KJ; first compound 6.325 µM): 0.52
relative viability (RERF-LC-KJ; first compound 20 µM): 0.427
relative viability (SK-MES-1; first compound 0.2 µM): 0.724
relative viability (SK-MES-1; first compound 0.6325 µM): 0.731
relative viability (SK-MES-1; first compound 2 µM): 0.722
relative viability (SK-MES-1; first compound 6.325 µM): 0.663
relative viability (SK-MES-1; first compound 20 µM): 0.615
relative viability (SW 1573; first compound 0.2 µM): 0.408
relative viability (SW 1573; first compound 0.6325 µM): 0.291
relative viability (SW 1573; first compound 2 µM): 0.393
relative viability (SW 1573; first compound 6.325 µM): 0.22
relative viability (SW 1573; first compound 20 µM): 0.0256
relative viability (SW 900; first compound 0.2 µM): 0.665
relative viability (SW 900; first compound 0.6325 µM): 0.61
relative viability (SW 900; first compound 2 µM): 0.492
relative viability (SW 900; first compound 6.325 µM): 0.0861
relative viability (SW 900; first compound 20 µM): 0.105
relative viability (UMC-11; first compound 0.2 µM): 0.348
relative viability (UMC-11; first compound 0.6325 µM): 0.31
relative viability (UMC-11; first compound 2 µM): 0.264
relative viability (UMC-11; first compound 6.325 µM): 0.343
relative viability (UMC-11; first compound 20 µM): 0.254
